Data from ChEMBL document CHEMBL1123942, “Effect of acyclic pyrimidines related to 9-[(1,3-dihydroxy-2-propoxy)methyl]guanine on herpesviruses” (J Med Chem, 1988).

Assays:
[1] = tested on: Human alphaherpesvirus 3; experiment: Inhibition of growth of varicella zoster virus(VZV) by plaque reduction assay in vero cell line; format: functional, organism-based; conditions: Human alphaherpesvirus 3, Vero
[2] = tested on: Cytomegalovirus; experiment: Inhibition of growth of human cytomegalovirus (HCMV) was determined by plaque reduction assay in human lung fibroblast cell line; format: functional, organism-based; conditions: Human betaherpesvirus 5, Fibroblast
[3] = tested on: Human alphaherpesvirus 1; experiment: (§1) Inhibition of growth of herpes simplex virus (HSV-1) by plaque reduction assay in vero cell line; format: functional, organism-based, herpes simplex vir; conditions: Human alphaherpesvirus 1, Vero
[4] = tested on: Cytomegalovirus; experiment: Inhibition of growth of human cytomegalovirus (HCMV) was determined by plaque reduction assay in Detroit cells; format: functional, organism-based; conditions: Human betaherpesvirus 5, Detroit
[5] = tested on: Human alphaherpesvirus 1; experiment: as §1; format: functional, organism-based; conditions: Human alphaherpesvirus 1, Vero
[6] = tested on: Human alphaherpesvirus 2; experiment: Inhibition of growth of herpes simplex virus (HSV-2) by plaque reduction assay in vero cell line; format: functional, organism-based; conditions: Human alphaherpesvirus 2, Vero
[7] = tested on: Cytomegalovirus; experiment: Inhibition of growth of human cytomegalovirus (HCMV) by plaque reduction assay in human lung fibroblast cell line; format: functional, organism-based; conditions: Human betaherpesvirus 5, Fibroblast
[8] = tested on: Cytomegalovirus; experiment: Inhibition of growth of human cytomegalovirus (HCMV) was determined by plaque reduction assay in human foreskin fibroblast cell line; format: functional, organism-based; conditions: Human betaherpesvirus 5, Fibroblast

SMILES | IC50 [1] | IC50 [2] | other results
O=c1ccn(COC(CO)CO)c(=O)[nH]1 | > 100 µM | > 250 µM | 
CNc1ccn(COC(CO)CO)c(=O)n1 |  | > 100 µM | 
O=c1[nH]c(=O)n(COC(CO)CO)cc1I [IODACYCLUR] | > 100 µM |  | IC50 [3]: > 100 µM; IC50 [4]: > 100 µM
Nc1nc2c(ncn2COC(CO)CO)c(=O)[nH]1 [GANCICLOVIR] | 2.8 µM | 3.4 µM | IC50 [5]: 0.1 µM; IC50 [6]: 0.1 µM
Nc1cn(COC(CO)CO)c(=O)[nH]c1=O | > 100 µM |  | 
O=c1[nH]c(=O)n(COC(CO)CO)cc1Br | > 100 µM | > 100 µM | 
Cc1cn(COC(CO)CO)c(=O)nc1N | > 100 µM | > 100 µM | 
CN(C)c1ccn(COC(CO)CO)c(=O)n1 | > 100 µM | > 100 µM | IC50 [5]: > 100 µM
Nc1nc(=O)ccn1COC(CO)CO |  | > 100 µM | 
Nc1nc(=O)n(COC(CO)CO)cc1F |  | 100 µM | 
Nc1ccn(COC(CO)CO)c(=O)n1 | 17.1 µM |  | IC50 [7]: 11.2 µM; IC50 [5]: 140 µM; IC50 [6]: 50 µM
COC(=O)CC(CC(=O)OC)OC[n+]1ccc(N)nc1 |  | > 100 µM | 
Nc1nc(=O)n(COC(CO)CO)cc1I | > 100 µM | > 100 µM | 
Nc1ncn(COC(CO)CO)c(=O)n1 |  | 100 µM | IC50 [8]: > 25 µM; IC50 [6]: > 100 µM
Nc1ccn(COC(CO)CO)c(=S)n1 |  | > 100 µM | 
Cc1cn(COC(CO)CO)c(=O)[nH]c1=O | > 100 µM | > 250 µM | 
